How the values were obtained:
Format in all cases: biochemical
vcASADH = vcASADH (Vibrio cholerae, UniProt Q9KQG2); test: ASADH kinetic assay
spASADH [1] = target: T1, spASADH (Streptococcus pneumoniae, UniProt Q8DQ00)
T1 sequence (Q8DQ00 1-358): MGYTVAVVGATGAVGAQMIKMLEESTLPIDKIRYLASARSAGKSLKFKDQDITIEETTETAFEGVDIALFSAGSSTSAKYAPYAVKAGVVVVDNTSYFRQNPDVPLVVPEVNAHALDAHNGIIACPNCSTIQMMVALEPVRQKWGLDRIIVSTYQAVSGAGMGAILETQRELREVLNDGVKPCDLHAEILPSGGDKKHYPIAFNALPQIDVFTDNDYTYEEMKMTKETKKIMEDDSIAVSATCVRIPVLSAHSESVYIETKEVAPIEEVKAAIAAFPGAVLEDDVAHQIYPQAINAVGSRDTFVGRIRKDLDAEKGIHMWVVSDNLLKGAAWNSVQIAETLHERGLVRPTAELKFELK

spASADH [2] = conditions: ratio of Ki vcASADH / spASADH

Chain of vcASADH (Q9KQG2 whole entry): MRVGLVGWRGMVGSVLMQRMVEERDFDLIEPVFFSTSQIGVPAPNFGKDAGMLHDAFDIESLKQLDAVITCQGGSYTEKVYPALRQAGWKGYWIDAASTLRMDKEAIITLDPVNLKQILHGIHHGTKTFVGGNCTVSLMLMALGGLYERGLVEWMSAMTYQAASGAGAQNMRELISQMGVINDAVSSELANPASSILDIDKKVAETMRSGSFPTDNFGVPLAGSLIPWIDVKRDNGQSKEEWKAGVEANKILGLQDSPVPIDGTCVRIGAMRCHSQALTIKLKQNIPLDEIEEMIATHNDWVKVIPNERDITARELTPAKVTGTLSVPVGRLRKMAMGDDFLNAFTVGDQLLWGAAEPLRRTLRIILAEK

O=C([O-])CCNCc1ccc(C(=O)[O-])c(C(=O)[O-])c1.[Na+].[Na+].[Na+] [compound 4, N-carboxyethyl-3,4-dicarboxybenzylamine]
inhibition of vcASADH (in words) (vcASADH): did not show appreciable inhibition

CN(CC(=O)[O-])Cc1cccc(C(=O)[O-])c1C(=O)[O-].[Na+].[Na+].[Na+] [compound 9, N-methyl, N-carboxymethyl-2,3-dicarboxybenzylamine]
inhibition of vcASADH (in words) (vcASADH): no inhibition

O=C([O-])CN(Cc1ccc(C(=O)[O-])c(C(=O)[O-])c1)c1ccc(-c2ccccc2)cc1.[Na+].[Na+].[Na+] [compound 17, N-(4-biphenyl)-N-carboxymethyl-3,4-dicarboxybenzylamine]
improved inhibition of spASADH relative to the parent benzyl derivative (spASADH [1]; relative to parent benzyl derivative (13)): 25 fold

NC(=O)c1ccc(CN(CC(=O)[O-])Cc2ccc(C(=O)[O-])c(C(=O)[O-])c2)cc1.[Na+].[Na+].[Na+] [compound 32, N-(4-carboxamidebenzyl)-N-carboxymethyl-3,4-dicarboxybenzylamine]
loss of affinity (spASADH [1]; carboxamide (32) relative to p-carboxylbenzyl derivative (31)): 3 fold

CC(C)(C)c1ccc(CN(CC(=O)[O-])Cc2ccc(C(=O)[O-])c(C(=O)[O-])c2)cc1.[Na+].[Na+].[Na+] [compound 33, N-(4-t-butylbenzyl)-N-carboxymethyl-3,4-dicarboxybenzylamine]
selectivity for spASADH relative to vcASADH (spASADH [2]): over 40 fold

From article PMC4601562 (Bioorganic & medicinal chemistry, 2015)
